Drawing on PubChem BioAssay AID182 (DTP/NCI, 2004), this text covers T/C for nine compounds.

The assay concerns BDF1 mice, P388/ADR leukemia ip, median survival T/C. Kind of assay: NCI In Vivo Anticancer Drug Screen. Data for tumor model P388 Leukemia resistant to Adriamycin; NSC 123127, Developed at Scr 06 and 41 (intraperitoneal) in B6D2F1 (BDF1) mice. To be noted: endpoint: median survival time, higher = longer survival. As to the method: The antitumor activity of compounds was measured in mice bearing transplantable tumors. Survival or tumor size were measured and the results are expressed as the measurement made in the treated group (T) divided by the measurement made in the vehicle treated control group (C). The tumor model used in this assay is P388 Leukemia resistant to Adriamycin; NSC 123127, Developed at Scr 06 and 41 (intraperitoneal) in B6D2F1 (BDF1) mice

Where [1] appears, read: dose: 1.73 mg/kg/injection, schedule: Q04DX003 (ip), vehicle: water.
[2] abbreviates: dose: 2.88 mg/kg/injection, schedule: Q04DX003 (ip), vehicle: water.
The mark [3] stands for this setting: dose: 4.8 mg/kg/injection, schedule: Q04DX003 (ip), vehicle: water.

Values joined by “and” are separate entries in the source; they are usually repeats but may differ in a detail not shown here. Equal values may be shown once. Inconclusive results and toxic doses are left out.

Take `O=C[C@@H](CO)O[C@H](C=O)n1cnc2c(=O)[nH]cnc21`: the T/C runs as follows: (dose: 180.0 mg/kg/injection, schedule: Q04DX003 (ip), vehicle: water) 162 % of control; (dose: 300.0 mg/kg/injection, schedule: Q04DX003 (ip), vehicle: water) 203 % of control.

For `CC(=O)c1cccc(NC2C(N)C(NC(=O)N(C)C)(C(C)O)C(C)(O)C2(O)COC(=O)c2c(C)cccc2O)c1` (stereo not drawn), the T/C runs as follows: (dose: 5.18 mg/kg/injection, schedule: Q04DX003 (ip), vehicle: alkali diluted with saline) 90 % of control; (dose: 6.5 mg/kg/injection, schedule: Q04DX003 (ip), vehicle: alkali diluted with saline) 114 % of control; (dose: 8.64 mg/kg/injection, schedule: Q04DX003 (ip), vehicle: alkali diluted with saline) 89 % of control; (dose: 14.4 mg/kg/injection, schedule: Q04DX003 (ip), vehicle: alkali diluted with saline) 87 % of control.

With `CC[C@H]1CN2CCc3cc(OC)c(OC)cc3[C@@H]2C[C@@H]1C[C@@H]1c2cc(OC)c(OC)cc2CCN1CCN(CCCl)CCCl`, the T/C is 119 % of control (dose: 4.3 mg/kg/injection, schedule: Q04DX003 (ip), vehicle: saline with Tween-80) and 119 % of control (dose: 7.2 mg/kg/injection, schedule: Q04DX003 (ip), vehicle: saline with Tween-80).

`CCC1(O)CC(OC2CC(N(C)C)C(OC3CC(O)C(OC4CCC(=O)C(C)O4)C(C)O3)C(C)O2)c2c(cc3c(c2O)C(=O)c2c(O)ccc(O)c2C3=O)C1C(=O)OC` (stereo not drawn): the T/C was 105 % of control under setting [1], 107 % of control under setting [2] and 119 % of control under setting [3].

As to `CC[C@@]1(O)C[C@H](OC2CC(N(C)C)C(OC3CC(O)C(OC4CCC(=O)C(C)O4)C(C)O3)C(C)O2)c2c(cc3c(c2O)C(=O)c2c(O)ccc(O)c2C3=O)[C@H]1C(=O)OC` (stereo partly drawn), the T/C is 110 % of control (dose: 0.65 mg/kg/injection, schedule: Q01DX009 (ip), vehicle: water); 120 % of control (dose: 1.08 mg/kg/injection, schedule: Q01DX009 (ip), vehicle: water); 115 % of control and 124 % of control under setting [1]; 116 % of control (dose: 2.5 mg/kg/injection, schedule: Q04DX003 (ip), vehicle: water); 119 % of control under setting [2]; 90 % of control (dose: 3.0 mg/kg/injection, schedule: Q01DX009 (ip), vehicle: water). Besides, the T/C was 119 % of control (dose: 4.8 mg/kg/injection, schedule: Q04DX003 (ip), vehicle: other); 150 % of control under setting [3]; 110 % of control (dose: 5.0 mg/kg/injection, schedule: Q04DX003 (ip), vehicle: water).

Regarding `O=CC(NC(=O)N(CCCl)N=O)C(O)C(O)C(O)CO` (stereo not drawn), the T/C runs as follows: (dose: 6.48 mg/kg/injection, schedule: Q04DX003 (ip), vehicle: saline) 240 % of control; (dose: 10.8 mg/kg/injection, schedule: Q04DX003 (ip), vehicle: saline) 553 % of control; (dose: 18.0 mg/kg/injection, schedule: Q04DX003 (ip), vehicle: saline) 120 % of control.

With `COc1cccc2c1C(=O)c1c(O)c3c(c(O)c1C2=O)C[C@@](O)(C(C)=O)C[C@@H]3OC1CC(N(C)C)C(O)C(C)O1` (stereo partly drawn), the T/C was 114 % of control (dose: 3.46 mg/kg/injection, schedule: Q04DX003 (ip), vehicle: water); 121 % of control (dose: 5.76 mg/kg/injection, schedule: Q04DX003 (ip), vehicle: water); 113 % of control (dose: 9.6 mg/kg/injection, schedule: Q04DX003 (ip), vehicle: water); 104 % of control (dose: 16.0 mg/kg/injection, schedule: Q04DX003 (ip), vehicle: water).

`NC(CSC(c1ccccc1)(c1ccccc1)c1ccccc1)C(=O)O` (stereo not drawn): the T/C is, setting by setting: (dose: 24.0 mg/kg/injection, schedule: Q01DX009 (ip), vehicle: other) 100 % of control; (dose: 40.0 mg/kg/injection, schedule: Q01DX009 (ip), vehicle: other) 106 % of control.

In the case of `CC(=O)C1(O)Cc2c(O)c3c(c(O)c2C(OC2CC(N)C(O)C(C)O2)C1)C(=O)c1ccccc1C3=O` (stereo not drawn), the T/C is 119 % of control (dose: 324.0 micrograms/kg/injection, schedule: Q04DX003 (ip), vehicle: water); 122 % of control (dose: 540.0 micrograms/kg/injection, schedule: Q04DX003 (ip), vehicle: water); 122 % of control (dose: 900.0 micrograms/kg/injection, schedule: Q04DX003 (ip), vehicle: water); 98 % of control (dose: 1500.0 micrograms/kg/injection, schedule: Q04DX003 (ip), vehicle: water).
